Test results reported in PubChem BioAssay AID330 (DTP/NCI, 2004).
Values joined by “and” are separate entries in the source; they are usually repeats but may differ in a detail not shown here. Equal entries are not always repeated. Inconclusive results and toxic doses are left out.

Tested on: P388 leukemia ip, CD2F1 mice, survival T/C
Assay: NCI In Vivo Anticancer Drug Screen. Data for tumor model P388 Leukemia (intraperitoneal) in CD2F1 (CDF1) mice
Conditions: endpoint: median survival time, higher = longer survival
Method in brief: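 Mice carrying the transplanted tumor received test compound or vehicle. Survival was recorded in each group, and the value is the treated-group measurement divided by that of the vehicle-treated control group.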

[1] = dose: 50.0 mg/kg/injection, schedule: Q01DX005 (ip), vehicle: Klucel (hydroxypropylcellulose) (HPC)
[2] = dose: 100.0 mg/kg/injection, schedule: Q01DX005 (ip), vehicle: Klucel (hydroxypropylcellulose) (HPC)
[3] = dose: 200.0 mg/kg/injection, schedule: Q01DX005 (ip), vehicle: Klucel (hydroxypropylcellulose) (HPC)
[4] = dose: 50.0 mg/kg/injection, schedule: Q01DX009 (ip), vehicle: saline
[5] = dose: 100.0 mg/kg/injection, schedule: Q01DX009 (ip), vehicle: saline
[6] = dose: 60.0 mg/kg/injection, schedule: Q01DX005 (ip), vehicle: saline
[7] = dose: 120.0 mg/kg/injection, schedule: Q01DX005 (ip), vehicle: saline
[8] = dose: 240.0 mg/kg/injection, schedule: Q01DX005 (ip), vehicle: saline
[9] = dose: 60.0 mg/kg/injection, schedule: Q01DX005 (ip), vehicle: saline with Tween-80
[10] = dose: 120.0 mg/kg/injection, schedule: Q01DX005 (ip), vehicle: saline with Tween-80
[11] = dose: 240.0 mg/kg/injection, schedule: Q01DX005 (ip), vehicle: saline with Tween-80
[12] = dose: 3.13 mg/kg/injection, schedule: Q01DX009 (ip), vehicle: saline with Tween-80
[13] = dose: 6.25 mg/kg/injection, schedule: Q01DX009 (ip), vehicle: saline with Tween-80

## CC1Cc2ccc3c(c2C(c2ccc4c(c2)OCO4)C1C)OCO3 (configuration not stated)
dose: 60.0 mg/kg/injection, schedule: Q01DX005 (ip), vehicle: Klucel + Tween-80
  T/C: 103 % of control
dose: 120.0 mg/kg/injection, schedule: Q01DX005 (ip), vehicle: Klucel + Tween-80
  T/C: 97 % of control
dose: 240.0 mg/kg/injection, schedule: Q01DX005 (ip), vehicle: Klucel + Tween-80
  T/C: 86 % of control

## Nc1nc2ccccc2[nH]1
dose: 20.0 mg/kg/injection, schedule: Q04DX003 (ip), vehicle: other
  T/C: 101 % of control
dose: 20.0 mg/kg/injection, schedule: Q04DX003 (oral), vehicle: other
  T/C: 102 % of control
dose: 40.0 mg/kg/injection, schedule: Q04DX003 (ip), vehicle: other
  T/C: 100 % of control
dose: 40.0 mg/kg/injection, schedule: Q04DX003 (oral), vehicle: other
  T/C: 100 % of control
dose: 80.0 mg/kg/injection, schedule: Q04DX003 (ip), vehicle: other
  T/C: 101 % of control
dose: 80.0 mg/kg/injection, schedule: Q04DX003 (oral), vehicle: other
  T/C: 102 % of control
dose: 160.0 mg/kg/injection, schedule: Q04DX003 (ip), vehicle: other
  T/C: 99 % of control
dose: 160.0 mg/kg/injection, schedule: Q04DX003 (oral), vehicle: other
  T/C: 102 % of control

## CC1=CC(=O)[C@@H](O)[C@]2(C)[C@H]3[C@@]4(O)OC[C@]35[C@H]([C@@H](C)[C@H]4O)[C@@H](O)C(=O)O[C@@H]5C[C@@H]12
dose: 6.25 mg/kg/injection, schedule: Q01DX009 (ip), vehicle: saline
  T/C: 115 % of control
dose: 12.5 mg/kg/injection, schedule: Q01DX009 (ip), vehicle: saline
  T/C: 104 % of control
dose: 25.0 mg/kg/injection, schedule: Q01DX009 (ip), vehicle: saline
  T/C: 115 % of control

## CONS(=O)(=O)c1ccccc1C(=O)OC
[1]
  T/C: 105 % of control
[2]
  T/C: 100 % of control
[3]
  T/C: 103 % of control

## Cc1ccc(N)c2ccccc12
[4]
  T/C: 117 % of control
[5]
  T/C: 112 % of control

## CS(C)(NC(N)=O)OS(=O)(=O)O
[6]
  T/C: 98 % of control
[7]
  T/C: 98 % of control
[8]
  T/C: 101 % of control

## O=S(=O)(Nc1ccc(Cl)cc1C(F)(F)F)c1ccc(F)cc1
[9]
  T/C: 100 % of control
[10]
  T/C: 110 % of control

## O=C1Oc2ccccc2[C@@H]2[C@H]1[C@@H]1C(=O)Oc3ccccc3[C@@H]12
[1]
  T/C: 97 % of control
[2]
  T/C: 97 % of control
[3]
  T/C: 100 % of control

## CCOC(=O)C(Cc1c[nH]c2ccccc12)(NC(C)=O)C(=O)OCC
dose: 100.0 mg/kg/injection, schedule: Q04DX003 (ip), vehicle: saline with Tween-80
  T/C: 100 % of control
dose: 200.0 mg/kg/injection, schedule: Q04DX003 (ip), vehicle: saline with Tween-80
  T/C: 100 % of control
dose: 400.0 mg/kg/injection, schedule: Q04DX003 (ip), vehicle: saline with Tween-80
  T/C: 100 % of control

## CC(C)=CCC/C(C)=C/CC/C(C)=C/CC/C=C(\C)CC/C=C(\C)CCC[N+](C)(C)[O-]
[6]
  T/C: 101 % of control
[7]
  T/C: 101 % of control
[8]
  T/C: 99 % of control

## CC(=O)OCCOCNC(=S)NCc1ccco1
[9]
  T/C: 106 % of control
[10]
  T/C: 102 % of control
[11]
  T/C: 98 % of control

## CC1=CC(=C(c2ccc(N)cc2)c2ccc(N)cc2)C=CC1=N
dose: 1.56 mg/kg/injection, schedule: Q01DX005 (ip), vehicle: water
  T/C: 117 % of control
dose: 3.12 mg/kg/injection, schedule: Q01DX005 (ip), vehicle: saline
  T/C: 117 % of control
dose: 12.5 mg/kg/injection, schedule: Q01DX005 (ip), vehicle: water
  T/C: 116 % of control

## O=C(Nc1ccc(C2=NCCCN2)cc1)c1ccc(C(=O)Nc2ccc(C3=NCCCN3)cc2)nc1
dose: 2.5 mg/kg/injection, schedule: Q01DX009 (ip), vehicle: saline
  T/C: 100 % of control
dose: 5.0 mg/kg/injection, schedule: Q04DX003 (ip), vehicle: saline
  T/C: 95 % of control
dose: 10.0 mg/kg/injection, schedule: Q04DX003 (ip), vehicle: saline
  T/C: 90 % of control

## O=C(CCSc1ncnc2nc[nH]c12)c1ccccc1
[4]
  T/C: 94 % of control
[5]
  T/C: 92 % of control
dose: 200.0 mg/kg/injection, schedule: Q01DX009 (ip), vehicle: saline
  T/C: 86 % of control

## O=C1OC2CCCC2C12C(=O)O[C@@H]1CCC[C@@H]12 (mixture of isomers)
[9]
  T/C: 97 % of control
[10]
  T/C: 99 % of control
[11]
  T/C: 99 % of control

## CCN(CC)c1cccc(OC(=O)Nc2cccc(C(F)(F)F)c2)c1
[9]
  T/C: 106 % of control
[10]
  T/C: 94 % of control
[11]
  T/C: 97 % of control

## N#C/C(=C/C=C/c1ccccc1)c1ccccc1
[1]
  T/C: 109 % of control
[2]
  T/C: 102 % of control
[3]
  T/C: 104 % of control

## COC1=C(OC)S[C@H]2[C@@H]3C[C@@H]([C@H]4CC=C[C@@H]34)[C@H]2S1
[1]
  T/C: 100 % of control
[2]
  T/C: 103 % of control
[3]
  T/C: 97 % of control

## C=C1C(=O)C23C(OC(=O)CCCCCCCCCCCCC)C1CCC2C12COC3(O)C(O)C1C(C)(C)CCC2O (configuration not stated)
dose: 3.75 mg/kg/injection, schedule: Q01DX009 (ip), vehicle: saline with Tween-80
  T/C: 104 % of control
dose: 7.5 mg/kg/injection, schedule: Q01DX009 (ip), vehicle: saline with Tween-80
  T/C: 109 % of control
dose: 15.0 mg/kg/injection, schedule: Q01DX009 (ip), vehicle: saline with Tween-80
  T/C: 112 % of control

## CCOC(=O)NC(NC(=O)OCC)c1cccc([N+](=O)[O-])c1
dose: 100.0 mg/kg/injection, schedule: Q04DX003 (ip), vehicle: saline
  T/C: 91 % of control
dose: 200.0 mg/kg/injection, schedule: Q04DX003 (ip), vehicle: saline
  T/C: 95 % of control
dose: 400.0 mg/kg/injection, schedule: Q04DX003 (ip), vehicle: saline
  T/C: 91 % of control

## COc1cccc2c1C(=O)c1c(O)c3c(c(O)c1C2=O)C[C@@](O)(C(C)=O)C[C@@H]3OC1CC(NC(C)C)C(O)C(C)O1 (some centres not stated)
dose: 0.2 mg/kg/injection, schedule: Q01DX009 (ip), vehicle: water
  T/C: 97 % of control
dose: 0.39 mg/kg/injection, schedule: Q01DX009 (ip), vehicle: water
  T/C: 103 % of control
dose: 0.78 mg/kg/injection, schedule: Q01DX009 (ip), vehicle: water
  T/C: 115 % of control
dose: 4.7 mg/kg/injection, schedule: Q04DX003 (ip), vehicle: water
  T/C: 109 % of control
dose: 6.25 mg/kg/injection, schedule: Q01DX009 (ip), vehicle: water
  T/C: 157 % of control and 174 % of control
dose: 9.4 mg/kg/injection, schedule: Q04DX003 (ip), vehicle: water
  T/C: 107 % of control and 113 % of control
dose: 12.5 mg/kg/injection, schedule: Q01DX009 (ip), vehicle: water
  T/C: 199 % of control
dose: 18.8 mg/kg/injection, schedule: Q04DX003 (ip), vehicle: water
  T/C: 120 % of control
dose: 150.0 mg/kg/injection, schedule: Q04DX003 (ip), vehicle: water
  T/C: 106 % of control and 91 % of control

## N/N=C1/C=Cc2cccc3cccc1c23
dose: 50.0 mg/kg/injection, schedule: Q01DX005 (ip), vehicle: saline with Tween-80
  T/C: 89 % of control
dose: 100.0 mg/kg/injection, schedule: Q01DX005 (ip), vehicle: saline with Tween-80
  T/C: 89 % of control

## CCC(O)(c1ccccc1)c1cnc(C)n1Cc1ccccc1 (configuration not stated)
[9]
  T/C: 91 % of control
[10]
  T/C: 88 % of control
[11]
  T/C: 89 % of control

## O=C(CNC(=O)c1ccc(Cl)cc1Cl)N/N=C/c1ccc(Cl)c(Cl)c1
[12]
  T/C: 104 % of control
[13]
  T/C: 108 % of control
dose: 12.5 mg/kg/injection, schedule: Q01DX009 (ip), vehicle: saline with Tween-80
  T/C: 104 % of control

## CCCCCCCCCC(C)CC(=O)NCCCN(C)CCCCN(C)C (configuration not stated) (tested in a mixture with another compound)
dose: 0.78 mg/kg/injection, schedule: Q01DX009 (ip), vehicle: saline with Tween-80
  T/C: 91 % of control
dose: 1.56 mg/kg/injection, schedule: Q01DX009 (ip), vehicle: saline with Tween-80
  T/C: 94 % of control
[12]
  T/C: 97 % of control
[13]
  T/C: 100 % of control

## O=C1c2ccccc2C(=O)N1CCCN1CCOCCOCCN(CCCN2C(=O)c3ccccc3C2=O)CCOCCOCC1
dose: 25.0 mg/kg/injection, schedule: Q04DX002 (ip), vehicle: saline + Tween-80 + alcohol
  T/C: 100 % of control
dose: 50.0 mg/kg/injection, schedule: Q04DX002 (ip), vehicle: saline + Tween-80 + alcohol
  T/C: 104 % of control
dose: 100.0 mg/kg/injection, schedule: Q04DX002 (ip), vehicle: saline + Tween-80 + alcohol
  T/C: 102 % of control and 95 % of control
